Assay results from US9555018B2, “Synergistic combinations of organic acid useful for controlling microoganisms in industrial processes” (Hercules Incorporated, priority 2013, dated 2017).
In brackets after ≈: the same amount, converted by molar mass. Read-outs that look alike come from different tables or passages of the source.

Experiments:
[1] = test system: Lactobacillus plantarum; assay: Minimal Inhibitory Concentration (MIC), two-fold dilution series in 96 well microplate, antimicrobial used alone; format: cell-based; conditions: for MIC: Lactiplantibacillus plantarum; for Propionic Acid MIC (QB) used alone: sodium propionate per text
From the text: While there are various methods known to individuals skilled in the art for measuring levels of antimicrobial activity, in the following examples the endpoint used is known as the Minimal Inhibitory Concentration, or MIC. This is the lowest concentration of a substance or substances which can achieve complete inhibition of growth.
In order to determine the Minimal Inhibitory Concentration, a two-fold dilution series of the antimicrobial is constructed with the dilutions being made in growth media. The dilutions are made in a 96 well microplate such that each well has a final volume of 280 μl of media and antimicrobial. The first well has, for example, a concentration of 1000 μM antimicrobial, the second 500 μM, the third 250 μM, and so forth, with the 12th and final well in the row having no antimicrobial at all and serving as a positive growth control. After the dilution series is constructed the wells receive an inoculum of microbe suspended in growth media such that the final concentration of microbes in the well is ˜5×10^5 cfu/ml. In these examples the test microbe used is Lactobacillus plantarum. The cultures are incubated at 37° C. for 18-24 hours, and the wells scored as positive or negative for growth based on a visual examination for turbid wells, with turbidity being an indicator of growth.

[2] = test system: Weisella confusa; conditions: background statement; cited from earlier work
[3] = test system: fermentation; conditions: background statement; cited from earlier work

Molecule: O=C(O)CC(O)(CC(=O)O)C(=O)O [Citric Acid, citric acid]
- MIC ([1]; pH 5, Example 2, read-out: Citric Acid MIC (QA) used alone): 25 mg/mL (≈ 130 mM)
- MIC ([1]; pH 5, Example 4, read-out: Citric acid MIC (QA) used alone): 25 mg/mL (≈ 130 mM)
- MIC ([1]; pH 6, Example 1, 37° C., 18-24 hours, read-out: Citric Acid MIC (QA) used alone): 100 mg/mL (≈ 520 mM)
- Citric Acid MIC (QA) used alone ([1]; pH 5, Example 2): 25000 ppm
- Citric Acid MIC (QA) used alone ([1]; pH 5, Example 4): 25000 ppm
- Citric Acid MIC (QA) used alone ([1]; pH 6, Example 1, 37° C., 18-24 hours): 100000 ppm
- Citric Acid MIC (QA) used alone ([1]; pH 6, Example 3): 100000 ppm
- Citric Acid MIC (QA) used alone ([1]; pH 6, Example 3, listed as citric acid): 100,000 ppm

Molecule: O=C([O-])c1ccccc1.[K+] [Potassium Benzoate, potassium benzoate]
- Potassium benzoate MIC (QB) used alone ([1]; pH 5, Example 4, listed as Potassium benzoate): 3125 ppm
- Potassium benzoate MIC (QB) used alone ([1]; pH 5, Example 4, listed as potassium benzoate): 3,125 ppm
- Potassium benzoate MIC (QB) used alone ([1]; pH 6, Example 3): 100000 ppm
- Potassium benzoate MIC (QB) used alone ([1]; pH 6, Example 3, listed as potassium benzoate): 100,000 ppm

Molecule: CCC(=O)[O-].[Na+] [Sodium Propionate, sodium propionate]
- Sodium Propionate MIC (QB) used alone ([1]; pH 5, Example 2): 100000 ppm
- Sodium Propionate MIC (QB) used alone ([1]; pH 5, Example 2, listed as sodium propionate): 100,000 ppm
- Propionic Acid MIC (QB) used alone ([1]; pH 6, Example 1): 100,000 ppm
- Propionic Acid MIC (QB) used alone ([1]; pH 6, Example 1, listed as Propionic Acid): 100000 ppm

Molecule: Virginiamycin
- concentration required to inhibit growth of Weisella confusa [2]: over 25 mg/L
- concentration that will suppress fermentation [3]: over 2 mg/L
